Measured values as given in paper PMC6032384 (International Journal of Molecular Sciences, 2018).
pIC50: −log10 of the molar value. Like-named read-outs stand apart in the source and are kept apart here.

Columns and labels:
[1] = tested on: MRC-5 (human lung fibroblast); assay: Alamar blue (AB) cytotoxicity assay, MRC-5 noncancerous cells; format: cell-based; conditions: MRC5 non-cancer cells, 72 h
[2] = tested on: PBMC (human peripheral blood mononuclear cell); assay: Alamar blue (AB) cytotoxicity assay, PBMC noncancerous cells; format: cell-based; conditions: PBMC non-cancer cells, 72 h
[3] = tested on: BAD gene knockout immortalized mouse embryonic fibroblasts (BAD KO SV40 MEF); assay: Alamar blue (AB) cytotoxicity assay, BAD KO SV40 MEF; format: cell-based; conditions: Mus musculus, Fibroblast, 72 h
[4] = tested on: wild-type immortalized mouse embryonic fibroblasts (WT SV40 MEF); assay: Alamar blue (AB) cytotoxicity assay, WT SV40 MEF; format: cell-based; conditions: Mus musculus, Fibroblast, 72 h
HL-60 cells [5] = assay: Cell morphology (May-Grunwald-Giemsa staining) and light scattering by flow cytometry; format: cell-based, human; conditions: positive controls, DOX 2 µM, OXA 2.5 µM
HL-60 cells [6] = format: cell-based, human; conditions: for DNA fragmentation (in words): positive controls, DOX 2 µM, 24 and 48 h
Protocol: The internucleosomal DNA fragmentation and cell cycle distribution were assessed in HL-60 cells after 24 and 48 h of incubation with the [Ru(PPh3)2(Thy)(bipy)]PF6 complex in a DNA content-based assay using the dye propidium iodide (PI) and flow cytometry (Table 3). All DNA with a subdiploid size (sub-G0/G1) were considered to be fragmented. At concentrations of 1, 2, and 4 μM, the complex led to, respectively, 19.4%, 30.1%, and 36.2% DNA fragmentation after 24 h of incubation and to 12.5%, 26.7%, and 58.2% DNA fragmentation after 48 h of incubation.
(§1) Light scattering features were determined by flow cytometry. The internucleosomal DNA fragmentation and cell cycle distribution were determined according to Nicoletti et al.. For apoptosis measurements, a FITC Annexin V Apoptosis Detection Kit I (BD Biosciences, San Jose, CA, USA) was used, and the analysis was performed, according to the manufacturer’s instructions. A protection assay using the pan-caspase inhibitor Z-VAD(OMe)-FMK (Cayman Chemical, Ann Arbor, MI, USA) was also evaluated. The mitochondrial transmembrane potential was determined by the retention of the dye rhodamine 123 [28]. The levels of ROS were measured, as previously described, using 2′,7′-dichlorofluorescin diacetate (DCF-DA, Sigma-Aldrich Co.). At least 1 × 10^4 events were recorded per sample using a BD LSRFortessa cytometer along with BD FACSDiva Software (BD Biosciences) and Flowjo Software 10 (Flowjo LCC, Ashland, OR, USA). The cellular debris was omitted from the analysis.

HL-60 cells [7] = assay: Annexin V-FITC/PI apoptosis assay by flow cytometry; format: cell-based, human; conditions: annexin V-FITC/PI, 24 and 48 h
Protocol: Additionally, annexin V, which is a Ca^2+-dependent protein with high affinity for phosphatidylserine, was conjugated to a fluorochrome to detect phosphatidylserine exposure using flow cytometry. Since phosphatidylserine exposure precedes the loss of membrane integrity, annexin V staining was used along with the dye PI to identify early and late apoptotic cells, as well as necrotic cells. Therefore, annexin V-FITC/PI double staining was applied to HL-60 cells that were treated with the [Ru(PPh3)2(Thy)(bipy)]PF6 complex after 24 and 48 h of incubation, and the numbers of viable, early apoptotic, late apoptotic, and necrotic cells were quantified by flow cytometry (Figure 5).
Figure 5 Evaluation of the apoptosis induced by the [Ru(PPh3)2(Thy)(bipy)]PF6 complex (CRT) in HL-60 cells determined by flow cytometry using annexin V-FITC/PI staining after 24 and 48 h of incubation. (A) Representative flow cytometry dot plots. (B) Apoptotic cell quantification (annexin V-FITC positive cells). […] Data are presented as the mean ± S.E.M. of at the least three independent experiments. * p < 0.05 as compared with the negative control by ANOVA, followed by the Student Newman-Keuls test. […] Its quadrant percentages are just as hard to read: 24 h about Q1 0.640%, Q2 5.23%, Q4 85.6%, Q3 8.47%; 48 h about Q1 0.430%, Q2 3.07%, Q4 91.0%, Q3 5.52%.
as §1

HL-60 cells [8] = conditions: 2 μM, TBE

COc1cccc2c1C(=O)c1c(O)c3c(c(O)c1C2=O)C[C@@](O)(C(=O)CO)C[C@@H]3O[C@H]1C[C@H](N)[C@H](O)[C@H](C)O1 [DOX, Doxorubicin, reference compound]
pIC50 ([1]; Homo sapiens): 5.82 | pIC50 ([2]; Homo sapiens): 5.29 | pIC50 [3]: 5.89 | pIC50 [4]: 6.10 | Type of cell death (HL-60 cells [5]): caused cell death by apoptosis | DNA content G0/G1 (HL-60 cells [6]; 2 µM, 24 h): 19.9 ± 2.5 % | DNA content G2/M (HL-60 cells [6]; 2 µM, 24 h): 8.9 ± 1.5 % | DNA content S (HL-60 cells [6]; 2 µM, 24 h): 6.6 ± 1.6 % | DNA content Sub-G0/G1 (DNA fragmentation) (HL-60 cells [6]; 2 µM, 24 h): 58.6 ± 2.5 % | DNA content G0/G1 (HL-60 cells [6]; 2 µM, 48 h): 21.9 ± 3.0 % | DNA content G2/M (HL-60 cells [6]; 2 µM, 48 h): 3.8 ± 0.9 % | DNA content S (HL-60 cells [6]; 2 µM, 48 h): 6.5 ± 0.6 % | DNA content Sub-G0/G1 (DNA fragmentation) (HL-60 cells [6]; 2 µM, 48 h): 65.4 ± 2.8 % | DNA fragmentation (in words) (HL-60 cells [6]; OXA 2.5 µM): induced DNA fragmentation | Percentage of apoptotic cells (early apoptotic cells + late apoptotic cells) (HL-60 cells [7]): caused an increase | Reduction of the number of viable cells (HL-60 cells [8]; 24 h): 58.0% | Reduction of the number of viable cells (HL-60 cells [8]; 48 h): 88.1%

O=C1[O][Pt]2([NH][C@@H]3CCCC[C@H]3[NH]2)[O]C1=O [OXA, Oxaliplatin, reference compound]
pIC50 [1]: 5.89 | pIC50 [2]: 5.03 | Type of cell death (HL-60 cells [5]): caused cell death by apoptosis | DNA content G0/G1 (HL-60 cells [6]; 2.5 µM, 24 h): 31.4 ± 3.0 % | DNA content G2/M (HL-60 cells [6]; 2.5 µM, 24 h): 26.0 ± 3.6 % | DNA content S (HL-60 cells [6]; 2.5 µM, 24 h): 11.6 ± 2.3% | DNA content Sub-G0/G1 (DNA fragmentation) (HL-60 cells [6]; 2.5 µM, 24 h): 21.9 ± 3.3 % | DNA content G0/G1 (HL-60 cells [6]; 2.5 µM, 48 h): 42.9 ± 2.8 % | DNA content G2/M (HL-60 cells [6]; 2.5 µM, 48 h): 19.1 ± 3.3% | DNA content S (HL-60 cells [6]; 2.5 µM, 48 h): 14.2 ± 1.2% | DNA content Sub-G0/G1 (DNA fragmentation) (HL-60 cells [6]; 2.5 µM, 48 h): 18.4 ± 4.4 % | Cell cycle arrest (HL-60 cells [6]; OXA 2.5 µM): cell cycle arrest at the G2/M phase | DNA fragmentation (in words) (HL-60 cells [6]; OXA 2.5 µM): induced DNA fragmentation | Percentage of apoptotic cells (early apoptotic cells + late apoptotic cells) (HL-60 cells [7]): caused an increase
